{"source": "patent US20090143752A1", "about": "“Passive intraocular drug delivery devices and associated methods” (priority 2007, published 2009)", "key": {"[1]": {"experiment": "DSP in eye tissues after passive delivery from six chambered annular lens-shaped housing, immediate release (Example 2)", "type": "in vivo, New Zealand White Rabbit", "details": "rabbit eye, 0.5 M DSP pH 7, 6.47 mgs in each of 3 chambers, housing on eye 20 minutes, 4 hours after application", "method": "A six chambered annular lens-shaped housing is used to passively administer dexamethasone sodium phosphate (DSP) into the eye for immediate release. Chambers 1, 3, and 5 each contain a 2 mm Avalon Sponge hydrated with 25 μl of hydrogel and are further loaded with 6.47 mgs of 0.5 M DSP at pH 7 in each chamber. […] The process is repeated for a total of 4 trials."}, "[2]": {"details": "New Zealand White, rabbit, in vivo, 4 h", "method": "A 100 microliter/30 G needle Hamilton syringe is used to administer a sub conjunctiva injection (n=2) of 20 microliters of 0.1M DSP at pH 7 into an eye of a New Zealand White Rabbit. The initial dose of DSP is 1.04 mg. […] The process is repeated for a total of 2 trials. About 23 micrograms of the approximate 1.04 mg subconjunctival injection of DSP are recovered from the whole eye after 4 hours. This illustrates the clearance effects of the transscleral pathway; in this case about 97.8 percent of the drug cleared the eye within four hours."}}}
{"smiles": "C[C@@H]1C[C@H]2[C@@H]3CCC4=CC(=O)C=C[C@]4(C)[C@@]3(F)[C@@H](O)C[C@]2(C)[C@@]1(O)C(=O)COP(=O)(O)O", "note": "[DSP, dexamethasone sodium phosphate]", "values": [{"measurement": "DSP Total Drug, Conjunctiva", "setting": "[1]", "result": "6.2 ± 0.8", "unit": "micrograms"}, {"measurement": "DSP Total Drug, Retina/Choroid", "setting": "[1]", "result": "1.1 ± 0.5", "unit": "micrograms"}, {"measurement": "DSP Total Drug, Sclera", "setting": "[1]", "result": "4.3 ± 1.0", "unit": "micrograms"}, {"measurement": "DSP Total Drug, Whole Eye", "setting": "[1]", "result": "14.9 ± 1.1", "unit": "micrograms"}, {"measurement": "percent of the drug cleared the eye", "setting": "[2]", "result": "about 97.8%"}]}
